The subject of one assay is Enterococcus faecalis. The assay is described as follows: MIC of glyphosate and neutralisation by CLK-GA, micro dilution method in RCM Bouillon. It is filed as cell-based. The text has this:
(§1) The pathogen Enterococcus faecalis was isolated from the microalgae Chlorella vulgaris to citrate-acid-tween-carbonate (CATC) agar. Suspicious colonies (gram positive, catalase negative cocci) were inoculated to blood agar plates (oxoid) and differentiated by using biochemical tests. The species differentiation was confirmed by means of MALDI-TOF-MS. The isolation of the pathogen Bacillus badius was done from Chlorella vulgaris to blood agar (oxoid). The species differentiation was done based on biochemical parameters. The confirmation was done by means of MALDI-TOF-MS.
(§2) Commercially available glyphosate preparation Roundup UltraMax® (450 g/l glyphosate as isopropylamine salt on SL formulation) was used for the test.
(§3) The value for the minimal inhibitory concentration of glyphosate for the indicator germs (MIC) was determined by using micro dilution method (MID) in accordance with the current specifications of the National Committee for Clinical Laboratory Standards (NCCLS). It was carried out for E. faecalis and B. Badius in RCM Bouillon (SIFIN).
(§4) The determination of the neutralising effect of humic acid product CLK-GA for glyphosate was done through glyphosate MIC. The MIC determinations for glyphosate and glyphosate-CLK-GA mixture was carried out in RCM Bouillon as described above. CLK-GA was used in the concentrations of 1.0, 0.5 and 0.25 mg/ml. The neutralisation of glyphosate was carried out in RCM Bouillon in the concentrations of 300 μg/ml, 600 μg/ml, 1200 μg/ml and 2400 μg/ml mixed with 1 mg/ml, 0.5 mg/ml and 0.25 mg/ml CLK-GA and kept overnight at 37° C. After centrifugation (3000 U/min) and filtration of the individual formulations through a centrifugal filter (3Kda, VWR, Mexico)m […] KbE E. faecalis and B. Badius was given to these. After growing it overnight at 37° C., the contents of each tube was spread on CATC agar or blood agar and was evaluated after 48 h.

The next assay deals with Bacillus badius. Described as above. It is filed as cell-based.
Description: as §1, §2, §3, §4

Where [1] appears, read: 10^4 KbE/ml suspension, end concentration 300 μg/ml glyphosate and/or 1 mg/ml CLK-GA.

We go through one compound from patent US20150216871A1, “Use of a Humic Acid Preparation for Treating Warm-Blooded Animals” (WH […] WEINBÖHLA GMBH, priority 2012, published 2015).

Structures are written as SMILES.

Usually MIC stands for the lowest concentration that inhibits growth of the organism. `O=C(O)CNCP(=O)(O)O` [Glyphosate, glyphosate]: the “growth / elimination of germs in suspension” value with Enterococcus faecalis (setting [1]) and in the assay with Bacillus badius (setting [1]) was “growth was absent” each time. Moreover, the MIC in the assay with Enterococcus faecalis (Enterococcus faecalis, read-out: MIC values Glyphosate) was found to be 200 µg/mL; with Bacillus badius (Pseudobacillus badius, read-out: MIC values Glyphosate) it was 150 µg/mL.
